Legend:
Type in all cases: ADME
Set-up in all cases: dose 2 uM
Conditions in all cases: 2 µM
Endoglucanase E (EGE) = target: T1, Endoglucanase E (EGE) (Bacteroides thetaiotaomicron, UniProt Q8AAL9); assay: (§1) The drug is tested on Bacteroides thetaiotaomicron strain: VPI-5482 for biotransformation. The drug concentrations were measured before and after a 12-h incubation by liquid-chromatography-coupled mass spectrometry (LC–MS)
T1 sequence (Q8AAL9 whole entry): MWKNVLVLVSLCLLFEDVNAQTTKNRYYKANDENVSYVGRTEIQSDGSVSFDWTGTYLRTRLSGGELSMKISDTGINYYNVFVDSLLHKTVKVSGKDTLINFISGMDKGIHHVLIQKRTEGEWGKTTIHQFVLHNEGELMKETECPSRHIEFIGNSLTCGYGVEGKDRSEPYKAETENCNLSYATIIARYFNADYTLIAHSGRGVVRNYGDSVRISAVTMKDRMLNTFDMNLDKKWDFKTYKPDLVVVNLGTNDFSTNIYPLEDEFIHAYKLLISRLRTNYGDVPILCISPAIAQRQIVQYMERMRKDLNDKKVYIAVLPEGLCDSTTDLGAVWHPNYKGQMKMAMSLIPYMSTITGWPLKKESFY

[1] = target: T2, Acetyl esterase (Acetylxylosidase) (Bacteroides thetaiotaomicron, UniProt Q8ABF8); assay: as §1
T2 sequence (Q8ABF8 whole entry): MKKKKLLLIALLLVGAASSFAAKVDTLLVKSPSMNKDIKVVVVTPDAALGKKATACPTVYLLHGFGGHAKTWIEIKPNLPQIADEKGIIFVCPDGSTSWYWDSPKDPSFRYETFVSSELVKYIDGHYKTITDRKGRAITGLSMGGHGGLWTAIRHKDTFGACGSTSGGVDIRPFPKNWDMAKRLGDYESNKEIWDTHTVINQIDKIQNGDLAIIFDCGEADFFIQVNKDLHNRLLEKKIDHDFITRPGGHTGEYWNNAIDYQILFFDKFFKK

Acylhydrolase = target: T3, Acylhydrolase (Bacteroides thetaiotaomicron, UniProt Q8AA96); assay: as §1
T3 sequence (Q8AA96 whole entry): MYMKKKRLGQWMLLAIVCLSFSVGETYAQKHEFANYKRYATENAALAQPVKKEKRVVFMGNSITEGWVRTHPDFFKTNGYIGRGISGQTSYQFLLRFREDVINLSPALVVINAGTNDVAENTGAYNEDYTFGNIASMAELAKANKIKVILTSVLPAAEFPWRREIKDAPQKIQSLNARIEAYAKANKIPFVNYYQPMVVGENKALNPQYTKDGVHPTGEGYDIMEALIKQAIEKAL

[2] = target: T4, Lipolytic enzyme, G-D-S-L family (Bacteroides thetaiotaomicron, UniProt Q8A0E6); assay: as §1
T4 sequence (Q8A0E6 whole entry): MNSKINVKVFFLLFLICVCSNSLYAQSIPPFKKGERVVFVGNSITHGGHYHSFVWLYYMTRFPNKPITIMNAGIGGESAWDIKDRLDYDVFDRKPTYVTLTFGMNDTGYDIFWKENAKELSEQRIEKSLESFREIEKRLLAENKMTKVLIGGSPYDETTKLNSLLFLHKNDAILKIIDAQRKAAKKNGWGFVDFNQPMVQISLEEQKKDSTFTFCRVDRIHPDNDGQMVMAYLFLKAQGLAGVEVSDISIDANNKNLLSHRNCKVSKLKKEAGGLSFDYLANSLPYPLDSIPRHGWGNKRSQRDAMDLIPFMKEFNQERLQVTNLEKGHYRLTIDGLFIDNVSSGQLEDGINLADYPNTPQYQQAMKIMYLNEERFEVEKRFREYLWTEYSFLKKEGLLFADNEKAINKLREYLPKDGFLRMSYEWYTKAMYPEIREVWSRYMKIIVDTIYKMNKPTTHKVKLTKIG

[3] = target: T5, 3-oxo-5-alpha-steroid 4-dehydrogenase (Bacteroides thetaiotaomicron, UniProt Q8A618); assay: as §1
T5 sequence (Q8A618 whole entry): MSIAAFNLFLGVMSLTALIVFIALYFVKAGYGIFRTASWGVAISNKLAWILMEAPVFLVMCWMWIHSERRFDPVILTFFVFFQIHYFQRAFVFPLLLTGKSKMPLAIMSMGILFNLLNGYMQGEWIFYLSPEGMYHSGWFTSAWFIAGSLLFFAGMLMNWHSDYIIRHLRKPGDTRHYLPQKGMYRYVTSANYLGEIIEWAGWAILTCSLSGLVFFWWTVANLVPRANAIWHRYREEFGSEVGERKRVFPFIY

General stress protein = General stress protein (Bacteroides thetaiotaomicron, UniProt Q8A7U5); assay: as §1
Sequence of General stress protein (Q8A7U5 1-138, change not shown): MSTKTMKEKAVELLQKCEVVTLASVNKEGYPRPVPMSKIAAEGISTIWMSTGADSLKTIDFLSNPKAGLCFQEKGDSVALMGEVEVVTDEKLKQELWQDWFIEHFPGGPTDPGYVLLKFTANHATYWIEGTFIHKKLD

Regulatory protein = target: T6, Regulatory protein (Bacteroides thetaiotaomicron, UniProt Q8A576); assay: as §1
T6 sequence (Q8A576 whole entry): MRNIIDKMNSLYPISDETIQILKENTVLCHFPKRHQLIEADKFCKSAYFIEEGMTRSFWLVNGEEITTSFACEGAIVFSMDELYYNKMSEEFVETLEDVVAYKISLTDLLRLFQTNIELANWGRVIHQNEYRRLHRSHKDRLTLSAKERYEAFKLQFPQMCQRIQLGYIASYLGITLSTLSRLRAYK

Xylanase = target: T7, Xylanase (Bacteroides thetaiotaomicron, UniProt Q8A8H5); assay: as §1
T7 sequence (Q8A8H5 whole entry): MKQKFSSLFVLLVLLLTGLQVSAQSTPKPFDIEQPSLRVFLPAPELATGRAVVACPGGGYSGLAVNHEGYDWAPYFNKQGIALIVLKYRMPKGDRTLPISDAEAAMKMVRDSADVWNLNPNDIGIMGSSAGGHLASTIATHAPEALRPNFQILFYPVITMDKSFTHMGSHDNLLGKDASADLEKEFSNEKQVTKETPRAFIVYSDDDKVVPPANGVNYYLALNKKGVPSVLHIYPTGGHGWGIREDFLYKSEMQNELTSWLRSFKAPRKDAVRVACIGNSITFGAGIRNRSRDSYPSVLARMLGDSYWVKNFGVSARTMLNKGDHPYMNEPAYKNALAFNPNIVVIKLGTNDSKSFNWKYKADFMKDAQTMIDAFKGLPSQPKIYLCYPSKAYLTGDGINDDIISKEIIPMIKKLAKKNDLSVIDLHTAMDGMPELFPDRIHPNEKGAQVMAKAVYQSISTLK

Measured: Bacterial Biotransformation

C[C@]12CCC(=O)C=C1[C@@H]1C[C@@H]1[C@H]1[C@@H]3[C@@H]4C[C@@H]4[C@@]4(CCC(=O)O4)[C@@]3(C)CC[C@@H]12 [DROSPIRENONE]
Compound NOT metabolized: all assays above
